For the test, the target named is T1, casein kinase 1ε (Homo sapiens, UniProt P49674).
T1 construct: made in house
The test can be described thus: Casein Kinase Epsilon 33P-ATP Filter Plate Assay for Screening CK1ε Inhibitors. In kind it is biochemical.

T1 sequence (P49674 whole entry): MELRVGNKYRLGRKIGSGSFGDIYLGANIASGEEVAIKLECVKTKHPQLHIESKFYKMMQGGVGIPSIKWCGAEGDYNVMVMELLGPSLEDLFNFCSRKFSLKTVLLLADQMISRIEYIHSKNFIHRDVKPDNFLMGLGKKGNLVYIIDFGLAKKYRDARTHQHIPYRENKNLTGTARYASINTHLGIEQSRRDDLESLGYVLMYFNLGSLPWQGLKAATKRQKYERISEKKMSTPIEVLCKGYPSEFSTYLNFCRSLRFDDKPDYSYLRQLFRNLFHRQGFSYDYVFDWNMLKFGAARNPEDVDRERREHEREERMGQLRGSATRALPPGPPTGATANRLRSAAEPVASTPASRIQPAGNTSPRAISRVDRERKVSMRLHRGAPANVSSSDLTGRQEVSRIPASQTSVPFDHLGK
Method: Casein Kinase Epsilon ^33P-ATP Filter Plate Assay for Screening CK1ε Inhibitors
Purpose: This assay measures the ability of compounds to inhibit the phosphorylation of the substrate casein by the enzyme casein kinase 1ε using an in vitro ^33P-ATP filtration assay.
The above are stored as 100 μL aliquots at minus 80° C. • Compounds: • Supply compounds for testing as frozen 10 mM compound stock dissolved in 100% DMSO. Assay Conditions: • Final total assay volume per well is equal to 50 μL that one prepares as follows: • 5 μL of diluted compound stock (10, 1, 0.1, 0.01 or 0.001 μM), • 5 μL of dephosphorylated casein final concentration 0.2 μg/μL, • 20 μL of CK1ε final concentration 3 ng/μL, and • 20 μL of γ-^33P-ATP final concentration 0.02 μCi/μL mixed with cold ATP (10 μM final). Methodology: • 1. Prepare 500 mL of fresh assay buffer: 50 mM Tris pH 7.5, 10 nm MgCl2, 2 mM DTT and 1 mM EGTA • 2. Obtain compounds to be evaluated as 10 μL of 10 mM stock dissolved in 100% DMSO. Use a Biomek 2000 liquid handling robot, make serial dilutions to yield 10, 1, 0.1, 0.01 and 0.001 μM final compound dilutions added as 5 μL additions to Falcon U bottom plates. […] A routine screening assay will consist of 32 compounds, which equals 4 assay plates. • 3.
• 4. Add 5 μL of compound as indicated, then add 5 μL of dephosphorylated casein (dissolved in distilled H20) (0.2 μg/μL) and 20 μL CK1ε (3 ng/μL) to the appropriate wells. • 5. Finally add 20 μL γ-^33P-ATP (0.02 μCi/μL)/10 μM cold ATP (equals approximately 2×10^6 CPM per well). • 6. Vortes the Falcon U-Bottom assay plate containing the above 50 μL reaction volume and then incubate at room temperature for 2 hours. • 7. At the end of 2 hours, stop the reaction by the addition of 65 μL of ice cold 2 mM cold ATP (made up in assay buffer) to the assay plates using a Beckman Multimek. • 8. At the same time add 25 μL 100% ice cold TCA made up in distilled H20 to a matching number of Millipore MAPH filter plates. • 9. Using a handheld 8-channel pipettor, transfer 100 μL of the reaction mixture from the Falcon U-Bottom Plate to the Millipore MAPH filter plates presoaked with TCA. • 10. Mix the Millipore MAPH filter plates gently and allow to sit at room temperature for at least 30 minutes to precipitate the proteins. • 11. After 30 minutes, place the filter plates on a Millipore vacuum manifold and filter at no more than 8 mm Hg as the MAPH filters tend to “air lock” at higher vacuum settings. • 12. […] Allow the plates to dry overnight at room temperature. The next day add 40 μL Packard Microscint-20 Scintillation Fluid per well using a Titertek Multidrop dispenser; seal the plates and count for 2 minutes/well in a Packard Topcount NXT Scintillation Counter (to provide CPM values/well). Calculation: • 1. Import Counts Per Minute (CPM) data into a proprietary data calculation and archiving database (Activity Base by IDBS version 5.0). • 2. Column 1 for each plate reflects total phosphorylation activity of the enzyme in the absence of any inhibiting compound and thus represents 100%. Column 12 reflects any nonspecific phosphorylation/retained radioactivity activity in the absence of inhibiting compound and enzyme. Typically one observes approximately 1% of Total CPMs that are “nonspecific”. • 3.

`NC(=O)c1[nH]c2cc(CNCc3cccc([N+](=O)[O-])c3)ccc2c1Sc1ccccc1` [IIk, 6-[(3-Nitrobenzylamino)methyl]-3-phenylsulfanyl-1H-indole-2-carboxylic acid amide] gave an inhibition constant (Ki) of 1190 nM.

The molecule `NC(=O)c1[nH]c2cc(CNCc3ccc(-c4ccccc4Cl)o3)ccc2c1Sc1ccccc1` [IIar, 6-({[5-(2-Chlorophenyl)-furan-2-ylmethyl]amino}methyl)-3-phenylsulfanyl-1H-indole-2-carboxylic acid amide] had a Ki of 2540 nM. This Ki lies about 2.1-fold higher than the previous one.

On to `COc1cc(CNCc2ccc3c(Sc4ccccc4)c(C(N)=O)[nH]c3c2)ccc1OCc1ccccc1` [IIaj, 6-[(4-Benzyloxy-3-methoxybenzylamino)methyl]-3-phenylsulfanyl-1H-indole-2-carboxylic acid amide], for which affinity was put at a Ki of 2100 nM.

As to `NC(=O)c1[nH]c2ccc(CNc3ccc4ncccc4c3)cc2c1Sc1ccccc1` [Iu, 3-Phenylsulfanyl-5-(quinolin-6-ylaminomethyl)-1H-indole-2-carboxylic acid amide], the Ki is 600 nM.

As to `NCCCC[C@H](N)C(=O)NCc1ccc2c(Sc3ccccc3)c(C(N)=O)[nH]c2c1` [IIad, 6-[(2,6-Diaminohexanoylamino)methyl]-3-phenylsulfanyl-1H-indole-2-carboxylic acid amide], the Ki is 110 nM.

Turning to `CCCCNCc1ccc2[nH]c(C(N)=O)c(Sc3ccccc3)c2c1` [Ik, 5-Butylaminomethyl-3-phenylsulfanyl-1H-indole-2-carboxylic acid amide], the Ki worked out at 93 nM.

Regarding `NC(=O)c1[nH]c2ccc(CN3CCCCC3)cc2c1Sc1ccccc1` [Il, 3-Phenylsulfanyl-5-piperidin-1ylmethyl-1H-indole-2-carboxylic acid amide], the Ki came out at 880 nM.

Consider `NC(=O)c1[nH]c2cc(CNCc3ccccc3[N+](=O)[O-])ccc2c1Sc1ccccc1` [IIl, 6-[(2-Nitrobenzylamino)methyl]-3-phenylsulfanyl-1H-indole-2-carboxylic acid amide], for which the affinity, expressed as Ki, was 1770 nM.

`NCc1ccc2c(Sc3ccccc3)c(C(N)=O)[nH]c2c1` [IIa, 6-Aminomethyl-3-phenylsulfanyl-1H-indole-2-carboxylic acid amide] gave a Ki of 97 nM.

`NC(=O)c1[nH]c2cc(CNCc3cccc(Oc4ccccc4)c3)ccc2c1Sc1ccccc1` [IIx, 6-[(3-Phenoxybenzylamino)methyl]-3-phenylsulfanyl-1H-indole-2-carboxylic acid amide] showed an inhibition constant (Ki) of 1190 nM.

Molecule `NC(=O)c1[nH]c2cc(CNC(=O)[C@@H](N)Cc3ccccc3)ccc2c1Sc1ccccc1` [IIt, 6-[(2-Amino-3-phenylpropionylamino)methyl]-3-phenylsulfanyl-1H-indole-2-carboxylic acid amide] registered a Ki of 1280 nM.

With `CC(C)NCc1ccc2[nH]c(C(N)=O)c(Sc3ccccc3)c2c1` [Iaj, 5-(Isopropylaminomethyl)-3-phenylsulfanyl-1H-indole-2-carboxylic acid amide], affinity was put at a Ki of 540 nM.

The molecule `CN(C)c1ccc(CNCc2ccc3c(Sc4ccccc4)c(C(N)=O)[nH]c3c2)cc1` [IIe, 6-[(4-Dimethylaminobenzylamino)methyl]-3-phenylsulfanyl-1H-indole-2-carboxylic acid amide] gave a Ki of 730 nM.

The molecule `CCCNCc1ccc2[nH]c(C(N)=O)c(Sc3ccccc3)c2c1` [Iae, 3-Phenylsulfanyl-5-propylaminomethyl-1H-indole-2-carboxylic acid amide] had a Ki of 580 nM.

On to `NC(=O)c1[nH]c2cc(CNCc3ccc(Cl)cc3)ccc2c1Sc1ccccc1` [IIi, 6-[(4-Chlorobenzylamino)methyl]-3-phenylsulfanyl-1H-indole-2-carboxylic acid amide], for which the affinity corresponds to a Ki of 390 nM.

Regarding `NC(=O)c1[nH]c2cc(CNCc3ccc([N+](=O)[O-])o3)ccc2c1Sc1ccccc1` [IIau, 6-{[(5-Nitrofuran-2-ylmethyl)amino]methyl}-3-phenylsulfanyl-1H-indole-2-carboxylic acid amide], the affinity, expressed as Ki, was 700 nM.

`COc1ccc2ccccc2c1CNCc1ccc2c(Sc3ccccc3)c(C(N)=O)[nH]c2c1` [IIv] showed an inhibitory constant (Ki) of 1010 nM.

Regarding `CNCc1ccc2c(c1)c(Sc1ccccc1)c(C(N)=O)n2C` [Ig, 1-Methyl-5-methylaminomethyl-3-phenylsulfanyl-1H-indole-2-carboxylic acid amide], the Ki is 4450 nM.

`CCCNCc1ccc2[nH]c(C(N)=O)c(Sc3ccccc3)c2c1` [Ij, 3-Phenylsulfanyl-5-propylaminomethyl-1H-indole-2-carboxylic acid amide] gave a Ki of 200 nM.

Molecule `CCC(C)C(N)C(=O)NCc1ccc2c(Sc3ccccc3)c(C(N)=O)[nH]c2c1` (stereo not drawn) [IIq, 6-[(2-Amino-3-methylpentanoylamino)methyl]-3-phenylsulfanyl-1H-indole-2-carboxylic acid amide] displayed a Ki of 150 nM.

In the case of `Cc1ccc(CNCc2ccc3c(Sc4ccccc4)c(C(N)=O)[nH]c3c2)cc1` [IIf, 6-[(4-Methylbenzylamino)methyl]-3-phenylsulfanyl-1H-indole-2-carboxylic acid amide], the Ki was 810 nM.

The molecule `NC(=O)c1[nH]c2ccc(CNCc3ccccc3)cc2c1Sc1ccccc1` [If, 5-(Benzylaminomethyl)-3-phenylsulfanyl-1H-indole-2-carboxylic acid amide] registered a Ki of 710 nM.

Regarding `NC(=O)c1[nH]c2ccc(CN3CCC(CO)CC3)cc2c1Sc1ccccc1` [Ih, 5-(4-Hydroxymethylpiperidin-1-ylmethyl)-3-phenylsulfanyl-1H-indole-2-carboxylic acid amide], the Ki was 1740 nM.

The molecule `COc1cc(CNCc2ccc3c(Sc4ccccc4)c(C(N)=O)[nH]c3c2)cc(Br)c1OC` [IIai, 6-[(3-Bromo-4,5-dimethoxybenzylamino)methyl]-3-phenylsulfanyl-1H-indole-2-carboxylic acid amide] yielded a Ki of 600 nM.

In turn, `NC(=O)c1[nH]c2cc(CNCc3cc(Cl)cc(Cl)c3O)ccc2c1Sc1ccccc1` [IIah, 6-[(3,5-Dichloro-2-hydroxybenzylamino)methyl]-3-phenylsulfanyl-1H-indole-2-carboxylic acid amide] returned a Ki of 3500 nM.

As to `NC(=O)c1[nH]c2ccc(CN3CCC4(CC3)OCCO4)cc2c1Sc1ccccc1` [Iz, 5-(1,4-Dioxa-8-aza-spiro[4,5]dec-8-ylmethyl)-3-phenylsulfanyl-1H-indole-2-carboxylic acid amide], the Ki was determined as 320 nM. Compared with the last molecule, the Ki is about 11-fold lower.

As for `NCC(=O)NCc1ccc2c(Sc3ccccc3)c(C(N)=O)[nH]c2c1` [IIp, 6-[(2-Aminoacetylamino)methyl]-3-phenylsulfanyl-1H-indole-2-carboxylic acid amide], the inhibition constant Ki is 120 nM.

In turn, `NC(=O)c1[nH]c2cc(CNCc3c(F)cccc3C(F)(F)F)ccc2c1Sc1ccccc1` [IIap, 6-[(2-Fluoro-6-trifluoromethylbenzylamino)methyl]-3-phenylsulfanyl-1H-indole-2-carboxylic acid amide] showed a Ki above 10000 nM.

As to `COc1ccccc1CNCc1ccc2c(Sc3ccccc3)c(C(N)=O)[nH]c2c1` [IIac, 6-[(2-Methoxybenzylamino)methyl]-3-phenylsulfanyl-1H-indole-2-carboxylic acid amide], the Ki stood at 240 nM.

As to `NC(=O)c1[nH]c2cc(CNCc3ccc([N+](=O)[O-])s3)ccc2c1Sc1ccccc1` [IIal, 6-{[(5-Nitrothiophen-2-ylmethyl)amino]methyl}-3-phenylsulfanyl-1H-indole-2-carboxylic acid amide], the Ki worked out at 1210 nM.
